According to ChEMBL document CHEMBL4316596, “Antimicrobial Peptides with High Proteolytic Resistance for Combating Gram-Negative Bacteria” (J Med Chem, 2019):
Values after ≈ are worked out from the molar mass of the structure shown.

Columns and labels:
[1] = Antimicrobial activity against Salmonella pullorum C7913 after 24 hrs by NCCLS-protocol based assay; assay type: functional, Salmonella enterica subsp. enterica serovar Pullorum; settings: Salmonella enterica, C7913, 24 h
Pseudomonas aeruginosa [2] = experiment: Bactericidal activity against Pseudomonas aeruginosa CICC 21625 clinical isolates incubated for 4 hrs followed by culture spread on agar plates and cultured overnight; assay type: functional; settings: CICC 21625, 4 h, read-out: MBC>99.9
Pseudomonas aeruginosa [3] = experiment: Bactericidal activity against Pseudomonas aeruginosa CICC 21630 clinical isolates incubated for 4 hrs followed by culture spread on agar plates and cultured overnight; assay type: functional; settings: CICC 21630, 4 h, read-out: MBC>99.9
Pseudomonas aeruginosa [4] = experiment: Bactericidal activity against Pseudomonas aeruginosa ATCC 27853 incubated for 4 hrs followed by culture spread on agar plates and cultured overnight; assay type: functional; settings: ATCC 27853, 4 h, read-out: MBC>99.9
Klebsiella pneumoniae [5] = experiment: Antimicrobial activity against Klebsiella pneumoniae after 24 hrs by NCCLS-protocol based assay; assay type: functional
Salmonella typhimurium [6] = experiment: Bactericidal activity against Salmonella typhimurium C7731 incubated for 4 hrs followed by culture spread on agar plates and cultured overnight; assay type: functional, Salmonella enterica subsp. enterica serovar Typhimurium; settings: Salmonella enterica, C7731, 4 h; read-out: MBC>99.9
Escherichia coli [7] = experiment: Bactericidal activity against Escherichia coli ATCC 25922 incubated for 4 hrs followed by culture spread on agar plates and cultured overnight; assay type: functional; settings: ATCC 25922, 4 h, read-out: MBC>99.9
Escherichia coli [8] = experiment: Antimicrobial activity against Escherichia coli K99 after 24 hrs by NCCLS-protocol based assay; assay type: functional; settings: K99, 24 h
Escherichia coli [9] = experiment: Antimicrobial activity against Escherichia coli ATCC 25922 after 24 hrs by NCCLS-protocol based assay; assay type: functional; settings: ATCC 25922, 24 h
Pseudomonas aeruginosa [10] = experiment: Bactericidal activity against Pseudomonas aeruginosa 26305 clinical isolates incubated for 4 hrs followed by culture spread on agar plates and cultured overnight; assay type: functional; settings: Pseudomonas aeruginosa, 26305, 4 h; read-out: MBC>99.9
Pseudomonas aeruginosa [11] = experiment: Bactericidal activity against Pseudomonas aeruginosa PAO1 incubated for 4 hrs followed by culture spread on agar plates and cultured overnight; assay type: functional; settings: PAO1, 4 h, read-out: MBC>99.9
Pseudomonas aeruginosa [12] = experiment: Antimicrobial activity against Pseudomonas aeruginosa CICC 21630 clinical isolates after 24 hrs by NCCLS-protocol based assay; assay type: functional; settings: CICC 21630, 24 h
Escherichia coli [13] = experiment: Antimicrobial activity against Escherichia coli 078 after 24 hrs by NCCLS-protocol based assay; assay type: functional; settings: Escherichia coli, 078, 24 h
Acinetobacter baumannii [14] = experiment: Antimicrobial activity against Acinetobacter baumannii after 24 hrs by NCCLS-protocol based assay; assay type: functional
Pseudomonas aeruginosa [15] = experiment: Antimicrobial activity against Pseudomonas aeruginosa 25349 clinical isolates after 24 hrs by NCCLS-protocol based assay; assay type: functional; settings: Pseudomonas aeruginosa, 25349, 24 h
Escherichia coli [16] = experiment: Bactericidal activity against Escherichia coli K88 incubated for 4 hrs followed by culture spread on agar plates and cultured overnight; assay type: functional; settings: K88, 4 h, read-out: MBC>99.9
Acinetobacter baumannii [17] = experiment: Bactericidal activity against Acinetobacter baumannii incubated for 4 hrs followed by culture spread on agar plates and cultured overnight; assay type: functional; settings: read-out: MBC>99.9
Pseudomonas aeruginosa [18] = experiment: Antimicrobial activity against Pseudomonas aeruginosa 26305 clinical isolates after 24 hrs by NCCLS-protocol based assay; assay type: functional; settings: Pseudomonas aeruginosa, 26305, 24 h
Escherichia coli [19] = experiment: Antimicrobial activity against Escherichia coli K88 after 24 hrs by NCCLS-protocol based assay; assay type: functional; settings: K88, 24 h
Escherichia coli [20] = experiment: Bactericidal activity against Escherichia coli 078 incubated for 4 hrs followed by culture spread on agar plates and cultured overnight; assay type: functional; settings: Escherichia coli, 078, 4 h; read-out: MBC>99.9
Salmonella typhimurium [21] = experiment: Bactericidal activity against Salmonella typhimurium ATCC 14028 incubated for 4 hrs followed by culture spread on agar plates and cultured overnight; assay type: functional, Salmonella enterica subsp. enterica serovar Typhimurium; settings: Salmonella enterica, ATCC 14028, 4 h; read-out: MBC>99.9
Klebsiella pneumoniae [22] = experiment: Bactericidal activity against Klebsiella pneumoniae incubated for 4 hrs followed by culture spread on agar plates and cultured overnight; assay type: functional; settings: read-out: MBC>99.9
Pseudomonas aeruginosa [23] = experiment: Antimicrobial activity against Pseudomonas aeruginosa CICC 21625 clinical isolates after 24 hrs by NCCLS-protocol based assay; assay type: functional; settings: CICC 21625, 24 h
Pseudomonas aeruginosa [24] = experiment: Bactericidal activity against Pseudomonas aeruginosa 25349 clinical isolates incubated for 4 hrs followed by culture spread on agar plates and cultured overnight; assay type: functional; settings: Pseudomonas aeruginosa, 25349, 4 h; read-out: MBC>99.9
Escherichia coli [25] = experiment: Antimicrobial activity against Escherichia coli UB1005 after 24 hrs by NCCLS-protocol based assay; assay type: functional; settings: UB1005, 24 h
Pseudomonas aeruginosa [26] = experiment: Antimicrobial activity against Pseudomonas aeruginosa ATCC 27853 after 24 hrs by NCCLS-protocol based assay; assay type: functional; settings: ATCC 27853, 24 h
Salmonella typhimurium [27] = experiment: Antimicrobial activity against Salmonella typhimurium ATCC 14028 after 24 hrs by NCCLS-protocol based assay; assay type: functional, Salmonella enterica subsp. enterica serovar Typhimurium; settings: Salmonella enterica, ATCC 14028, 24 h
[28] = Bactericidal activity against Salmonella pullorum C7913 incubated for 4 hrs followed by culture spread on agar plates and cultured overnight; assay type: functional, Salmonella enterica subsp. enterica serovar Pullorum; settings: Salmonella enterica, C7913, 4 h; read-out: MBC>99.9
Salmonella typhimurium [29] = experiment: Antimicrobial activity against Salmonella typhimurium C7731 after 24 hrs by NCCLS-protocol based assay; assay type: functional, Salmonella enterica subsp. enterica serovar Typhimurium; settings: Salmonella enterica, C7731, 24 h
Escherichia coli [30] = experiment: Bactericidal activity against Escherichia coli UB1005 incubated for 4 hrs followed by culture spread on agar plates and cultured overnight; assay type: functional; settings: UB1005, 4 h, read-out: MBC>99.9
Pseudomonas aeruginosa [31] = experiment: Antimicrobial activity against Pseudomonas aeruginosa PAO1 after 24 hrs by NCCLS-protocol based assay; assay type: functional; settings: PAO1, 24 h
Escherichia coli [32] = experiment: Bactericidal activity against Escherichia coli K99 incubated for 4 hrs followed by culture spread on agar plates and cultured overnight; assay type: functional; settings: K99, 4 h, read-out: MBC>99.9

Molecule | MIC95 [1] [µM] | MBC (Pseudomonas aeruginosa [2]) [µM] | MBC (Pseudomonas aeruginosa [3]) [µM] | MBC (Pseudomonas aeruginosa [4]) [µM] | MIC95 (Klebsiella pneumoniae [5]) [µM] | MBC (Salmonella typhimurium [6]) [µM] | MBC (Escherichia coli [7]) [µM] | MIC95 (Escherichia coli [8]) [µM] | MIC95 (Escherichia coli [9]) [µM] | MBC (Pseudomonas aeruginosa [10]) [µM] | MBC (Pseudomonas aeruginosa [11]) [µM] | MIC95 (Pseudomonas aeruginosa [12]) [µM] | MIC95 (Escherichia coli [13]) [µM] | MIC95 (Acinetobacter baumannii [14]) [µM] | MIC95 (Pseudomonas aeruginosa [15]) [µM] | MBC (Escherichia coli [16]) [µM] | MBC (Acinetobacter baumannii [17]) [µM] | MIC95 (Pseudomonas aeruginosa [18]) [µM] | MIC95 (Escherichia coli [19]) [µM] | MBC (Escherichia coli [20]) [µM] | also measured
H-LKPLLKPLLKPLLKPL-NH2 | 32 | > 64 | > 64 | > 64 | > 64 | > 64 | 32 | 16 | 16 | > 64 | > 64 | > 64 | 32 | 4 | > 64 | 16 | 8 | > 64 | 16 | 64 | MBC (Salmonella typhimurium [21]): > 64 µM; MBC (Klebsiella pneumoniae [22]): > 64 µM; MIC95 (Pseudomonas aeruginosa [23]): > 64 µM; MBC (Pseudomonas aeruginosa [24]): > 64 µM; MIC95 (Escherichia coli [25]): 16 µM; MIC95 (Pseudomonas aeruginosa [26]): > 64 µM; MIC95 (Salmonella typhimurium [27]): > 64 µM; MBC [28]: 64 µM; MIC95 (Salmonella typhimurium [29]): > 64 µM; MBC (Escherichia coli [30]): 64 µM; MIC95 (Pseudomonas aeruginosa [31]): > 64 µM; MBC (Escherichia coli [32]): 32 µM
H-VRPVVRPVVRPVVRPVVRPVVRPVVRPV-NH2 | 4 | > 64 | > 64 | > 64 | 32 | 32 | 16 | 16 | 8 | > 64 | > 64 | > 64 | 8 | 4 | > 64 | 32 | 4 | > 64 | 8 | 16 | MBC (Salmonella typhimurium [21]): 16 µM; MBC (Klebsiella pneumoniae [22]): 64 µM; MIC95 (Pseudomonas aeruginosa [23]): > 64 µM; MBC (Pseudomonas aeruginosa [24]): > 64 µM; MIC95 (Escherichia coli [25]): 8 µM; MIC95 (Pseudomonas aeruginosa [26]): > 64 µM; MIC95 (Salmonella typhimurium [27]): 8 µM; MBC [28]: 8 µM; MIC95 (Salmonella typhimurium [29]): 16 µM; MBC (Escherichia coli [30]): 8 µM; MIC95 (Pseudomonas aeruginosa [31]): > 64 µM; MBC (Escherichia coli [32]): 32 µM
H-IRPIIRPIIRPIIRPIIRPI-NH2 | 8 | > 64 | > 64 | 64 | 8 | 16 | 8 | 4 | 8 | > 64 | 64 | > 64 | 8 | 4 | > 64 | 1 | 4 | > 64 | 1 | 16 | MBC (Salmonella typhimurium [21]): 8 µM; MBC (Klebsiella pneumoniae [22]): 16 µM; MIC95 (Pseudomonas aeruginosa [23]): > 64 µM; MBC (Pseudomonas aeruginosa [24]): > 64 µM; MIC95 (Escherichia coli [25]): 4 µM; MIC95 (Pseudomonas aeruginosa [26]): 32 µM; MIC95 (Salmonella typhimurium [27]): 8 µM; MBC [28]: 8 µM; MIC95 (Salmonella typhimurium [29]): 16 µM; MBC (Escherichia coli [30]): 8 µM; MIC95 (Pseudomonas aeruginosa [31]): 64 µM; MBC (Escherichia coli [32]): 4 µM
NCC[C@H](O)C(=O)N[C@@H]1C[C@H](N)[C@@H](O[C@H]2O[C@H](CN)[C@@H](O)[C@H](O)[C@H]2O)[C@H](O)[C@H]1O[C@H]1O[C@H](CO)[C@@H](O)[C@H](N)[C@H]1O [AMIKACIN] | 0.0625 (≈ 0.0366 µg/mL) | 0.25 (≈ 0.146 µg/mL) | 0.125 (≈ 0.0732 µg/mL) | 0.25 (≈ 0.146 µg/mL) | 0.0625 (≈ 0.0366 µg/mL) | 0.125 (≈ 0.0732 µg/mL) | 0.125 (≈ 0.0732 µg/mL) | 0.0625 (≈ 0.0366 µg/mL) | 0.0625 (≈ 0.0366 µg/mL) | > 64 | 0.125 (≈ 0.0732 µg/mL) | 0.125 (≈ 0.0732 µg/mL) | 0.0625 (≈ 0.0366 µg/mL) | 0.0625 (≈ 0.0366 µg/mL) | 0.25 (≈ 0.146 µg/mL) | 0.0625 (≈ 0.0366 µg/mL) | 0.125 (≈ 0.0732 µg/mL) | > 64 | 0.0625 (≈ 0.0366 µg/mL) | 0.0625 (≈ 0.0366 µg/mL) | MBC (Salmonella typhimurium [21]): 0.125 µM (≈ 0.0732 µg/mL); MBC (Klebsiella pneumoniae [22]): 0.125 µM (≈ 0.0732 µg/mL); MIC95 (Pseudomonas aeruginosa [23]): 0.125 µM (≈ 0.0732 µg/mL); MBC (Pseudomonas aeruginosa [24]): 0.25 µM (≈ 0.146 µg/mL); MIC95 (Escherichia coli [25]): 0.0625 µM (≈ 0.0366 µg/mL); MIC95 (Pseudomonas aeruginosa [26]): 0.125 µM (≈ 0.0732 µg/mL); MIC95 (Salmonella typhimurium [27]): 0.125 µM (≈ 0.0732 µg/mL); MBC [28]: 0.0625 µM (≈ 0.0366 µg/mL); MIC95 (Salmonella typhimurium [29]): 0.0625 µM (≈ 0.0366 µg/mL); MBC (Escherichia coli [30]): 0.125 µM (≈ 0.0732 µg/mL); MIC95 (Pseudomonas aeruginosa [31]): 0.0625 µM (≈ 0.0366 µg/mL); MBC (Escherichia coli [32]): 0.125 µM (≈ 0.0732 µg/mL)
